From PubChem BioAssay (NCI) come the findings set out here.

Test systems include A549 NSCLC; HCT-116 colon; HT29 colon; M19-MEL melanoma; MALME-3M melanoma; NCI-H23 lung; NCI-H522 lung; OVCAR-3 ovarian; OVCAR-5 ovarian; SF-295 CNS; SF-539 CNS; SW-620 colon; TK-10 renal; UACC-257 melanoma; UACC-62 melanoma; EKVX NSCLC; SK-OV-3 ovarian; SN12C renal; SR leukemia; MDA-MB-435.
Common to all, as to assay: NCI anticancer screen, dose series, 48 h

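Test compounds were applied to cells in 96-well plates for 48 hours at 5 doses. TGI: total growth inhibition.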 Some results are limits rather than exact numbers.

For the compound `N#Cc1c2ccccc2cn1-c1ccc(F)cc1`, the TGI with A549 NSCLC is > 100 µM; in the experiment with HCT-116 colon, 62.3 µM; in the experiment on HT29 colon, > 100 µM; in the experiment with M19-MEL melanoma, > 100 µM; in the experiment with MALME-3M melanoma, 86.1 µM; with NCI-H23 lung, 56.2 µM. Besides, the TGI in the experiment on NCI-H522 lung was 43.2 µM; in the experiment with OVCAR-3 ovarian, 67.9 µM; in the experiment with OVCAR-5 ovarian, > 100 µM; with SF-295 CNS it was > 100 µM; in the experiment on SF-539 CNS, > 100 µM; in the experiment with SW-620 colon, > 100 µM. The results for the TGI with TK-10 renal, with UACC-257 melanoma and in the experiment with UACC-62 melanoma were > 100 µM, 83.8 µM and > 100 µM, respectively.
On to `S=c1sc2c(Cl)nc(Cl)nc2n1-c1ccccc1`, for which the TGI in the experiment on A549 NSCLC is > 100 µM; in the experiment with EKVX NSCLC, > 100 µM; in the experiment with HCT-116 colon, 31.1 µM; in the experiment with HT29 colon, > 100 µM; with M19-MEL melanoma, 29.9 µM; in the experiment on MALME-3M melanoma it was > 100 µM. The TGI was 32.9 µM in the experiment with NCI-H23 lung; 23.8 µM with NCI-H522 lung; 60.4 µM in the experiment on OVCAR-3 ovarian; > 100 µM in the experiment with OVCAR-5 ovarian; > 100 µM in the experiment on SF-295 CNS; > 100 µM in the experiment with SF-539 CNS. Moreover, the TGI is > 100 µM in the experiment on SK-OV-3 ovarian; > 100 µM in the experiment on SN12C renal; 55.1 µM in the experiment on SR leukemia; 68.1 µM in the experiment with SW-620 colon; > 100 µM in the experiment with TK-10 renal; > 100 µM in the experiment with UACC-257 melanoma. For the same compound, the TGI in the experiment on UACC-62 melanoma was found to be 27.8 µM.
Turning to `COc1cc(NS(C)(=O)=O)ccc1Nc1c2ccccc2nc2c1[nH]c1ccc(NC3OC(CO)C(O)C(O)C3O)cc12` (stereo unspecified), the TGI in the experiment with A549 NSCLC came to 0.235 µM; in the experiment with EKVX NSCLC it was 4.98 µM; with HCT-116 colon, 1.43 µM; in the experiment with HT29 colon, 0.938 µM; in the experiment on M19-MEL melanoma, 1.75 µM; in the experiment with MALME-3M melanoma it was 1.43 µM. The TGI with MDA-MB-435 was 7.06 µM; in the experiment with NCI-H23 lung, 0.27 µM; in the experiment on NCI-H522 lung it was 0.387 µM; with OVCAR-3 ovarian, 2 µM; in the experiment with OVCAR-5 ovarian, 2.09 µM; with SF-295 CNS, 0.13 µM. Moreover, the TGI is 0.0405 µM in the experiment with SF-539 CNS; 0.299 µM in the experiment with SK-OV-3 ovarian; 0.387 µM in the experiment on SN12C renal; > 100 µM in the experiment with SR leukemia; 2.08 µM in the experiment with SW-620 colon; 0.7 µM in the experiment on TK-10 renal. In addition, the TGI in the experiment with UACC-257 melanoma was determined as 11 µM; with UACC-62 melanoma, 1.08 µM.
Regarding `CN(C)CCC(=O)c1ccccc1`, the TGI in the experiment on A549 NSCLC is > 82.1 µM; in the experiment on EKVX NSCLC, > 68.8 µM; in the experiment on HCT-116 colon it was 55.4 µM; with HT29 colon it was > 67.3 µM; with M19-MEL melanoma, 52.7 µM; in the experiment with MALME-3M melanoma, 24.1 µM. In addition, the TGI is > 74 µM in the experiment with NCI-H23 lung; 1.06 µM in the experiment on NCI-H522 lung; > 73.4 µM in the experiment with OVCAR-3 ovarian; > 57.6 µM in the experiment on OVCAR-5 ovarian; > 100 µM with SF-295 CNS; > 70.3 µM with SF-539 CNS. In addition, the TGI with SK-OV-3 ovarian is > 68.8 µM; with SN12C renal it was > 70.1 µM; in the experiment on SR leukemia it was 57.4 µM; in the experiment on SW-620 colon, 32.4 µM; in the experiment with TK-10 renal it was > 68.4 µM; in the experiment with UACC-257 melanoma, > 59 µM. The TGI with UACC-62 melanoma is > 68.1 µM.
Take `CN=C1CC2c3cc(OC)c(OC)cc3CCN2C2=C1C(=O)CC(C)(C)C2` (stereo unspecified): the TGI with A549 NSCLC, with EKVX NSCLC, in the experiment on HCT-116 colon, in the experiment with HT29 colon, in the experiment with M19-MEL melanoma and with MALME-3M melanoma was > 100 µM in each case. Besides, the TGI in the experiment with NCI-H23 lung, in the experiment on NCI-H522 lung, in the experiment on OVCAR-3 ovarian, in the experiment with OVCAR-5 ovarian, in the experiment on SF-295 CNS and with SF-539 CNS was > 100 µM each time. Besides, the TGI with SN12C renal, in the experiment with SR leukemia, in the experiment on SW-620 colon, in the experiment with TK-10 renal and with UACC-257 melanoma was > 100 µM in each case.
Take `Cn1c(=O)n(C2(C)C[Se]C2)c2ccccc21`: the TGI in the experiment with A549 NSCLC, with EKVX NSCLC, with HCT-116 colon, with HT29 colon, in the experiment with M19-MEL melanoma and in the experiment with NCI-H23 lung was > 100 µM throughout. Moreover, the TGI with NCI-H522 lung, in the experiment with OVCAR-5 ovarian, in the experiment on SF-295 CNS, in the experiment with SF-539 CNS, in the experiment on SK-OV-3 ovarian and with SN12C renal was > 100 µM each time. Further, the TGI in the experiment on SR leukemia, in the experiment with SW-620 colon, in the experiment on TK-10 renal, with UACC-257 melanoma and with UACC-62 melanoma was > 100 µM in each case.
Consider `COC(=O)C1=C(C(=O)NNc2ccccc2)N(c2cccnc2Cl)C(c2ccccc2)=CC1c1ccccc1` (stereo unspecified), for which the TGI in the experiment on A549 NSCLC, with EKVX NSCLC, in the experiment with HCT-116 colon, in the experiment on HT29 colon, with MALME-3M melanoma and in the experiment on MDA-MB-435 was > 100 µM in each case. The TGI in the experiment on NCI-H23 lung is > 100 µM; in the experiment on NCI-H522 lung, > 100 µM; with OVCAR-3 ovarian, > 100 µM; with OVCAR-5 ovarian, > 100 µM; with SF-295 CNS, 56 µM; with SF-539 CNS, > 100 µM. Moreover, the TGI in the experiment on SK-OV-3 ovarian, in the experiment on SN12C renal, in the experiment with SR leukemia, in the experiment with SW-620 colon, in the experiment with TK-10 renal and in the experiment with UACC-257 melanoma was > 100 µM each time. In addition, in the experiment on UACC-62 melanoma, the TGI was > 100 µM.
